Converted amounts (≈) assume the structure as drawn. The source made the active and inactive calls. The rule behind the calls is not given here.
Legend:
Staphylococcus aureus [1] = experiment: (§1) Antibacterial activity against methicillin-resistant Staphylococcus aureus ATCC 43300 infected in sepsis mouse model assessed as decrease in TNF-alpha level in blood at 5 mg/kg pre-infected with bacteria for 1 hrs followed by continuous compound administration at 12 hrs intervals for 2 days; format: functional, organism-based; conditions: time 2.0 day
Acinetobacter baumannii = experiment: Antibacterial activity against Acinetobacter baumannii ATCC 19606; format: functional
Staphylococcus aureus [2] = experiment: as §1, with “reduction” for “decrease”, “bacterial load” for “TNF-alpha level”, “days (reference value: 3.69 log10CFU/ml)” for “days”; format: functional; conditions: time 2 day
Bacillus subtilis = experiment: Antibacterial activity against penicillin-susceptible Bacillus subtilis ATCC 9372; format: functional
Staphylococcus aureus [3] = experiment: as §1, with “reduction” for “decrease”, “pathological damages” for “TNF-alpha level”, “liver” for “blood”, “days by H and E staining based analysis” for “days”; format: functional, organism-based; conditions: time 2.0 day
Escherichia coli = experiment: Antibacterial activity against penicillin-susceptible Escherichia coli ATCC 25922; format: functional
Staphylococcus aureus [4] = experiment: as §1, with “reduction” for “decrease”, “pathological damages” for “TNF-alpha level”, “kidney” for “blood”, “days by H and E staining based analysis” for “days”; format: functional, organism-based; conditions: time 2.0 day
Staphylococcus aureus [5] = experiment: as §1, with “reduction” for “decrease”, “number of surviving bacterial colonies” for “TNF-alpha level”, “days relative to control” for “days”; format: functional; conditions: time 2 day
Staphylococcus aureus [6] = experiment: as §1, with “reduction” for “decrease”, “pathological damages” for “TNF-alpha level”, “spleen” for “blood”, “days by H and E staining based analysis” for “days”; format: functional, organism-based; conditions: time 2.0 day
Staphylococcus aureus [7] = experiment: as §1, with “reduction” for “decrease”, “number of surviving bacterial colonies” for “TNF-alpha level”, “kidney” for “blood”, “days relative to control” for “days”; format: functional; conditions: time 2 day
Staphylococcus aureus [8] = experiment: as §1, with “reduction” for “decrease”, “bacterial load” for “TNF-alpha level”, “liver” for “blood”, “days (reference value: 7.16 log10CFU/g)” for “days”; format: functional; conditions: time 2 day
Staphylococcus aureus [9] = experiment: as §1, with “reduction” for “decrease”, “bacterial load” for “TNF-alpha level”, “spleen” for “blood”, “days (reference value: 7.45 log10CFU/g)” for “days”; format: functional; conditions: time 2 day
Staphylococcus aureus [10] = experiment: as §1, with “reduction” for “decrease”, “number of surviving bacterial colonies” for “TNF-alpha level”, “spleen” for “blood”, “days relative to control” for “days”; format: functional; conditions: time 2 day
Enterococcus faecalis = experiment: Antibacterial activity against vancomycin-susceptible Enterococcus faecalis ATCC 29212; format: functional
Staphylococcus aureus [11] = experiment: as §1, with “reduction” for “decrease”, “number of surviving bacterial colonies” for “TNF-alpha level”, “liver” for “blood”, “days relative to control” for “days”; format: functional; conditions: time 2 day
Pseudomonas aeruginosa = experiment: Antibacterial activity against penicillin-susceptible Pseudomonas aeruginosa ATCC 27853; format: functional
Staphylococcus aureus [12] = experiment: as §1, with “reduction” for “decrease”, “bacterial load” for “TNF-alpha level”, “kidney” for “blood”, “days (reference value: 6.75 log10CFU/g)” for “days”; format: functional; conditions: time 2 day
Staphylococcus aureus [13] = experiment: Antibacterial activity against methicillin-resistant Staphylococcus aureus ATCC 43300 infected in sepsis mouse model assessed as decrease in IL-6 level in blood at 5 mg/kg pre-infected with bacteria for 1 hrs followed by continuous compound administration at 12 hrs intervals for 2 days; format: functional, organism-based; conditions: time 2.0 day
Klebsiella pneumoniae = experiment: Antibacterial activity against Klebsiella pneumoniae ATCC 10031; format: functional
Staphylococcus aureus [14] = experiment: Antibacterial activity against penicillin-resistant Staphylococcus aureus ATCC 31007; format: functional
[15] = Selectivity index, ratio of HC50 for hemolytic activity in sheep RBC to MIC for antibacterial activity against methicillin-resistant Staphylococcus aureus ATCC 43300; format: toxicity; conditions: sheep red blood cells (erythrocytes), read-out: Selectivity Index
Staphylococcus aureus [16] = experiment: Antibacterial activity against erythromycin-susceptible Staphylococcus aureus ATCC 25923; format: functional
Staphylococcus aureus [17] = experiment: Antibacterial activity against methicillin-resistant Staphylococcus aureus ATCC 43300; format: functional
[18] = Hemolytic activity in sheep RBC; format: toxicity, cell-based, Ovis aries, Erythrocyte; conditions: sheep red blood cells (erythrocytes)
[19] = system: Staphylococcus epidermidis; experiment: Antibacterial activity erythromycin-susceptible Staphylococcus epidermidis ATCC 12228; format: functional

| Compound | MIC (Acinetobacter baumannii) [µg/mL] | MIC (Bacillus subtilis) [µg/mL] | MIC (Escherichia coli) [µg/mL] | MIC (Enterococcus faecalis) [µg/mL] | MIC (Pseudomonas aeruginosa) [µg/mL] | MIC (Klebsiella pneumoniae) [µg/mL] | MIC (Staphylococcus aureus [14]) [µg/mL] | selectivity ratio [15] | MIC (Staphylococcus aureus [16]) [µg/mL] | MIC (Staphylococcus aureus [17]) [µg/mL] | HC50 [18] [µg/mL] | MIC [19] [µg/mL] | other results |
| --- | --- | --- | --- | --- | --- | --- | --- | --- | --- | --- | --- | --- | --- |
| CN[C@H](CC(C)C)C(=O)N[C@H]1C(=O)N[C@@H](CC(N)=O)C(=O)N[C@H]2C(=O)N[C@H]3C(=O)N[C@H](C(=O)N[C@H](C(=O)O)c4cc(O)cc(O)c4-c4cc3ccc4O)[C@H](O)c3ccc(c(Cl)c3)Oc3cc2cc(c3O[C@@H]2O[C@H](CO)[C@@H](O)[C@H](O)[C@H]2O[C@H]2C[C@](C)(N)[C@H](O)[C@H](C)O2)Oc2ccc(cc2Cl)[C@H]1O [VANCOMYCIN] | 16 (≈ 11 µM) | 0.5 (≈ 0.345 µM) | 128 (≈ 88.3 µM) | 2 (≈ 1.38 µM) | > 128 | 128 (≈ 88.3 µM) | – | – | – | – | – | – | Activity (Staphylococcus aureus [1]): Active; Activity (Staphylococcus aureus [2]): 1.5 log10CFU/ml; Activity (Staphylococcus aureus [3]): Active; Activity (Staphylococcus aureus [4]): Active; Activity (Staphylococcus aureus [5]): 96.5%; Activity (Staphylococcus aureus [6]): Active; Activity (Staphylococcus aureus [7]): 99.8%; Activity (Staphylococcus aureus [8]): 2.7 log10CFU/g; Activity (Staphylococcus aureus [9]): 2.33 log10CFU/g; Activity (Staphylococcus aureus [10]): 99.6%; Activity (Staphylococcus aureus [11]): 99.8%; Activity (Staphylococcus aureus [12]): 2.73 log10CFU/g; Activity (Staphylococcus aureus [13]): Active |
| CCNCCCOc1ccc(/C=C/C(=O)c2ccc3c(c2OC)C=CC(C)(CCC=C(C)C)O3)cc1 (stereo unspecified) | > 128 | 8 (≈ 16.3 µM) | > 128 | 4 (≈ 8.17 µM) | > 128 | 32 (≈ 65.4 µM) | 8 (≈ 16.3 µM) | 7.5 | 8 (≈ 16.3 µM) | 8 (≈ 16.3 µM) | 59.9 | 1 (≈ 2.04 µM) | – |
| CC(=O)c1c(OCCCN2CCSCC2)c2c(c3c1OC(C)(CCC=C(C)C)C=C3)OC(C)(CCC=C(C)C)C=C2 (stereo unspecified) | > 128 | > 128 | > 128 | > 128 | > 128 | > 128 | > 128 | < 6.6 | > 128 | > 128 | 844 | > 128 | – |
| CCCCN(CCCC)CCCNCCCOc1ccc(/C=C/C(=O)c2ccc3c(c2OC)C=CC(C)(CCC=C(C)C)O3)cc1 (stereo unspecified) | 8 (≈ 12.7 µM) | 4 (≈ 6.34 µM) | 4 (≈ 6.34 µM) | 2 (≈ 3.17 µM) | 128 (≈ 203 µM) | 16 (≈ 25.4 µM) | 4 (≈ 6.34 µM) | 16.7 | 8 (≈ 12.7 µM) | 4 (≈ 6.34 µM) | 66.9 | 1 (≈ 1.59 µM) | – |
| CCN(CC)C(=O)COc1c(C(C)=O)ccc2c1C=CC(C)(CCC=C(C)C)O2 (stereo unspecified) | 128 (≈ 320 µM) | > 128 | > 128 | > 128 | > 128 | > 128 | > 128 | 1 | > 128 | 128 (≈ 320 µM) | 131 | > 128 | – |
| CC(=O)c1ccc2c(c1OCC(=O)NCCCN1CCOCC1)C=CC(C)(CCC=C(C)C)O2 (stereo unspecified) | 128 (≈ 272 µM) | 128 (≈ 272 µM) | > 128 | 128 (≈ 272 µM) | > 128 | 128 (≈ 272 µM) | 128 (≈ 272 µM) | 4.1 | 128 (≈ 272 µM) | 64 (≈ 136 µM) | 261 | 128 (≈ 272 µM) | – |
| CC(=O)c1c(OCCCN(CCCN(C)C)CCCN(C)C)c2c(c3c1OC(C)(CCC=C(C)C)C=C3)OC(C)(CCC=C(C)C)C=C2 (stereo unspecified) | 8 (≈ 12 µM) | 4 (≈ 6.02 µM) | 8 (≈ 12 µM) | 4 (≈ 6.02 µM) | 128 (≈ 193 µM) | 8 (≈ 12 µM) | 4 (≈ 6.02 µM) | 15.1 | 4 (≈ 6.02 µM) | 2 (≈ 3.01 µM) | 30.2 | 4 (≈ 6.02 µM) | – |

From ChEMBL document CHEMBL5614413, “Design, synthesis and biological evaluation of amphiphilic benzopyran derivatives as potent antibacterial agents against multidrug-resistant bacteria” (Eur J Med Chem, 2024)
